According to paper PMC11842588, “A first-in-class selective inhibitor of ERK1/2 and ERK5 overcomes drug resistance with a single-molecule strategy” (Signal Transduction and Targeted Therapy, 2025):

Experiments:
Experiment in all cases: Kinase profiling
Format in all cases: biochemical
DCAMKL3(h) = molecular target: T1, DCAMKL3(h) (Homo sapiens, UniProt Q9C098)
T1 construct: purchased Eurofins Cerep SA (KinaseProfiler)
Method: (§1) 380 kinases inhibitory activities of SKLB-D18 were conducted by Eurofins Cerep SA. The result was illustrated by kinase tree (http://www.kinhub.org/kinmap/).

Txk(h) = molecular target: T2, Txk(h) (Homo sapiens, UniProt P42681)
T2 construct: purchased Eurofins Cerep SA (KinaseProfiler)
Method: as §1

PRP4(h) = molecular target: T3, PRP4(h) (Homo sapiens, UniProt Q13523)
T3 construct: purchased Eurofins Cerep SA (KinaseProfiler)
Method: as §1

NEK6(h) = molecular target: T4, NEK6(h) (Homo sapiens, UniProt Q9HC98)
T4 construct: purchased Eurofins Cerep SA (KinaseProfiler)
Method: as §1

MLCK(h) = molecular target: T5, MLCK(h) (Homo sapiens, UniProt Q9H1R3)
T5 construct: purchased Eurofins Cerep SA (KinaseProfiler)
Method: as §1

GRK2(h) = molecular target: T6, GRK2(h) (Homo sapiens, UniProt P25098)
T6 construct: purchased Eurofins Cerep SA (KinaseProfiler)
Method: as §1

CK1ε(h) = molecular target: T7, CK1ε(h) (Homo sapiens, UniProt P49674)
T7 construct: purchased Eurofins Cerep SA (KinaseProfiler)
Method: as §1

BRK(h) = molecular target: T8, BRK(h) (Homo sapiens, UniProt Q13882)
T8 construct: purchased Eurofins Cerep SA (KinaseProfiler)
Method: as §1

MLK4(h) = molecular target: T9, MLK4(h) (Homo sapiens, UniProt Q5TCX8)
T9 construct: purchased Eurofins Cerep SA (KinaseProfiler)
Method: as §1

DRAK1(h) = molecular target: T10, DRAK1(h) (Homo sapiens, UniProt Q9UEE5)
T10 construct: purchased Eurofins Cerep SA (KinaseProfiler)
Method: as §1

EphA4(h) = molecular target: T11, EphA4(h) (Homo sapiens, UniProt P54764)
T11 construct: purchased Eurofins Cerep SA (KinaseProfiler)
Method: as §1

MELK(h) = molecular target: T12, MELK(h) (Homo sapiens, UniProt Q14680)
T12 construct: purchased Eurofins Cerep SA (KinaseProfiler)
Method: as §1

CLK1(h) = molecular target: T13, CLK1(h) (Homo sapiens, UniProt P49759)
T13 construct: purchased Eurofins Cerep SA (KinaseProfiler)
Method: as §1

LATS1(h) = molecular target: T14, LATS1(h) (Homo sapiens, UniProt O95835)
T14 construct: purchased Eurofins Cerep SA (KinaseProfiler)
Method: as §1

DYRK2(h) = molecular target: T15, DYRK2(h) (Homo sapiens, UniProt Q92630)
T15 construct: purchased Eurofins Cerep SA (KinaseProfiler)
Method: as §1

SAPK2b(h) = molecular target: T16, SAPK2b(h) (Homo sapiens, UniProt Q15759)
T16 construct: purchased Eurofins Cerep SA (KinaseProfiler)
Method: as §1

MSSK1(h) = molecular target: T17, MSSK1(h) (Homo sapiens, UniProt Q9UPE1)
T17 construct: purchased Eurofins Cerep SA (KinaseProfiler)
Method: as §1

A-Raf(h) = molecular target: T18, A-Raf(h) (Homo sapiens, UniProt P10398)
T18 construct: purchased Eurofins Cerep SA (KinaseProfiler)
Method: as §1

HRI(h) = molecular target: T19, HRI(h) (Homo sapiens, UniProt Q9BQI3)
T19 construct: purchased Eurofins Cerep SA (KinaseProfiler)
Method: as §1

TrkC(h) = molecular target: T20, TrkC(h) (Homo sapiens, UniProt Q16288)
T20 construct: purchased Eurofins Cerep SA (KinaseProfiler)
Method: as §1

CaMKIIγ(h) = molecular target: T21, CaMKIIγ(h) (Homo sapiens, UniProt Q13555)
T21 construct: purchased Eurofins Cerep SA (KinaseProfiler)
Method: as §1

DCAMKL1(h) = molecular target: T22, DCAMKL1(h) (Homo sapiens, UniProt O15075)
T22 construct: purchased Eurofins Cerep SA (KinaseProfiler)
Method: as §1

SIK(h) = molecular target: T23, SIK(h) (Homo sapiens, UniProt P57059)
T23 construct: purchased Eurofins Cerep SA (KinaseProfiler)
Method: as §1

[1] = molecular target: T24, PI3 Kinase (p110d/p85a)(h) (Homo sapiens, UniProt O00329)
T24 construct: purchased Eurofins Cerep SA (KinaseProfiler)
Method: as §1

PAK5(h) = molecular target: T25, PAK5(h) (Homo sapiens, UniProt Q9P286)
T25 construct: purchased Eurofins Cerep SA (KinaseProfiler)
Method: as §1

IRE1(h) = molecular target: T26, IRE1(h) (Homo sapiens, UniProt O75460)
T26 construct: purchased Eurofins Cerep SA (KinaseProfiler)
Method: as §1

MARK4(h) = molecular target: T27, MARK4(h) (Homo sapiens, UniProt Q96L34)
T27 construct: purchased Eurofins Cerep SA (KinaseProfiler)
Method: as §1

IRR(h) = molecular target: T28, IRR(h) (Homo sapiens, UniProt P14616)
T28 construct: purchased Eurofins Cerep SA (KinaseProfiler)
Method: as §1

EphB2(h) = molecular target: T29, EphB2(h) (Homo sapiens, UniProt P29323)
T29 construct: purchased Eurofins Cerep SA (KinaseProfiler)
Method: as §1

WNK3(h) = molecular target: T30, WNK3(h) (Homo sapiens, UniProt Q9BYP7)
T30 construct: purchased Eurofins Cerep SA (KinaseProfiler)
Method: as §1

MOK(h) = molecular target: T31, MOK(h) (Homo sapiens, UniProt Q9UQ07)
T31 construct: purchased Eurofins Cerep SA (KinaseProfiler)
Method: as §1

Ret(h) = molecular target: T32, Ret(h) (Homo sapiens, UniProt P07949)
T32 construct: purchased Eurofins Cerep SA (KinaseProfiler)
Method: as §1

CDK3/cyclinE(h) = molecular target: T33, CDK3/cyclinE(h) (Homo sapiens, UniProt Q00526)
T33 construct: purchased Eurofins Cerep SA (KinaseProfiler)
Method: as §1

cSRC(h) = molecular target: T34, cSRC(h) (Homo sapiens, UniProt P12931)
T34 construct: purchased Eurofins Cerep SA (KinaseProfiler)
Method: as §1

ULK2(h) = molecular target: T35, ULK2(h) (Homo sapiens, UniProt Q8IYT8)
T35 construct: purchased Eurofins Cerep SA (KinaseProfiler)
Method: as §1

DMPK(h) = molecular target: T36, DMPK(h) (Homo sapiens, UniProt Q09013)
T36 construct: purchased Eurofins Cerep SA (KinaseProfiler)
Method: as §1

ALK2(h) = molecular target: T37, ALK2(h) (Homo sapiens, UniProt Q04771)
T37 construct: purchased Eurofins Cerep SA (KinaseProfiler)
Method: as §1

IKKε(h) = molecular target: T38, IKKε(h) (Homo sapiens, UniProt Q14164)
T38 construct: purchased Eurofins Cerep SA (KinaseProfiler)
Method: as §1

CaMKK2(h) = molecular target: T39, CaMKK2(h) (Homo sapiens, UniProt Q96RR4)
T39 construct: purchased Eurofins Cerep SA (KinaseProfiler)
Method: as §1

PKCε(h) = molecular target: T40, PKCε(h) (Homo sapiens, UniProt Q02156)
T40 construct: purchased Eurofins Cerep SA (KinaseProfiler)
Method: as §1

JAK3(h) = molecular target: T41, JAK3(h) (Homo sapiens, UniProt P52333)
T41 construct: purchased Eurofins Cerep SA (KinaseProfiler)
Method: as §1

T18 sequence (P10398 whole entry): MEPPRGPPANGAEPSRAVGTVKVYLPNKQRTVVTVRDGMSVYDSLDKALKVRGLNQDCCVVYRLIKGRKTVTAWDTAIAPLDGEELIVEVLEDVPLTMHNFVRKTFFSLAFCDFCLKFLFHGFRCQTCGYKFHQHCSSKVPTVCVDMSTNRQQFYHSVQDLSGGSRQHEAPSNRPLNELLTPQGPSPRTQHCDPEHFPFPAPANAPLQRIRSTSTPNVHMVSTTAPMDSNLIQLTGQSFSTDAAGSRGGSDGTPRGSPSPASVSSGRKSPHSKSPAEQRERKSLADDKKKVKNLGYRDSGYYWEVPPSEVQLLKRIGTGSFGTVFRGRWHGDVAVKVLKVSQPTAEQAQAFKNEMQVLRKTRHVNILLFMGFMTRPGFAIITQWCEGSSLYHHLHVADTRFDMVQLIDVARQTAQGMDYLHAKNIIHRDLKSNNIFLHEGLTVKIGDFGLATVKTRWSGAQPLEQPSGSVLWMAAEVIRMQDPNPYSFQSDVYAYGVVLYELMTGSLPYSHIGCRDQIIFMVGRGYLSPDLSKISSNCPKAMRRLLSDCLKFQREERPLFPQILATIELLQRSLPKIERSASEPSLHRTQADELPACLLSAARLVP
T5 sequence (Q9H1R3 2-596 limits assumed): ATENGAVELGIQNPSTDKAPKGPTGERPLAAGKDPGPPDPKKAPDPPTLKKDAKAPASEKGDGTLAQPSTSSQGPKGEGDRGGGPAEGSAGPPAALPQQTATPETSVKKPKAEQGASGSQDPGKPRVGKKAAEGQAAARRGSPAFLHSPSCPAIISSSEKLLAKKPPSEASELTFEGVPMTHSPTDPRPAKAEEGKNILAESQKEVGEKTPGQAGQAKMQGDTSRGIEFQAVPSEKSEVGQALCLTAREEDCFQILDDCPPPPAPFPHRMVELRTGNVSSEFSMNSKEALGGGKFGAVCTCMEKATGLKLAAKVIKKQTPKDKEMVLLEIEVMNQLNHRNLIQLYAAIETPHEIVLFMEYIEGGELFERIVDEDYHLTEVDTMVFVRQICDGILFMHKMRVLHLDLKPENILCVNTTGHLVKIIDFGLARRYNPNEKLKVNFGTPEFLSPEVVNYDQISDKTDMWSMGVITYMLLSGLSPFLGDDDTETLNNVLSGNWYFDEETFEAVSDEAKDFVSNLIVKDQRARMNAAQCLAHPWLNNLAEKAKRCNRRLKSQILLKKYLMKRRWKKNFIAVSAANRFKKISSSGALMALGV
T20 sequence (Q16288 32-839): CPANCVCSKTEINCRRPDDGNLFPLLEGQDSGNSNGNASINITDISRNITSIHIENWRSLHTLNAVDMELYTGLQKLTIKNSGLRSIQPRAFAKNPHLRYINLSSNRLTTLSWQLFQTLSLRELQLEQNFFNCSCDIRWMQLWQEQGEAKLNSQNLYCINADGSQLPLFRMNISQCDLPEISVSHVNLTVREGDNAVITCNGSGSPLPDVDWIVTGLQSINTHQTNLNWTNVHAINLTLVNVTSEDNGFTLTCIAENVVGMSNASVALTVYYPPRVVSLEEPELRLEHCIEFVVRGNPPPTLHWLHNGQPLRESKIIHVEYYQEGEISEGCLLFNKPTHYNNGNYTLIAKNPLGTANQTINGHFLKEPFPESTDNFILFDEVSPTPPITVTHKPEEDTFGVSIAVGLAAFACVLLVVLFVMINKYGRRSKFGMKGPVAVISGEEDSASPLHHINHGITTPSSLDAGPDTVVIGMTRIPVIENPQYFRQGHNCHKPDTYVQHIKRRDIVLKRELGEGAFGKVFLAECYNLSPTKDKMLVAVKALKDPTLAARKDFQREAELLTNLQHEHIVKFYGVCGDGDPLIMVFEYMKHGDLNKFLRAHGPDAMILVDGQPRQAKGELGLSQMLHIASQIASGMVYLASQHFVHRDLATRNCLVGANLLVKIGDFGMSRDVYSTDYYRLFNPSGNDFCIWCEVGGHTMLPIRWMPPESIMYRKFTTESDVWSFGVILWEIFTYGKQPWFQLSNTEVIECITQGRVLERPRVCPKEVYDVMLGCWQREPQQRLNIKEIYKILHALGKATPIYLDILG
T25 sequence (Q9P286 whole entry): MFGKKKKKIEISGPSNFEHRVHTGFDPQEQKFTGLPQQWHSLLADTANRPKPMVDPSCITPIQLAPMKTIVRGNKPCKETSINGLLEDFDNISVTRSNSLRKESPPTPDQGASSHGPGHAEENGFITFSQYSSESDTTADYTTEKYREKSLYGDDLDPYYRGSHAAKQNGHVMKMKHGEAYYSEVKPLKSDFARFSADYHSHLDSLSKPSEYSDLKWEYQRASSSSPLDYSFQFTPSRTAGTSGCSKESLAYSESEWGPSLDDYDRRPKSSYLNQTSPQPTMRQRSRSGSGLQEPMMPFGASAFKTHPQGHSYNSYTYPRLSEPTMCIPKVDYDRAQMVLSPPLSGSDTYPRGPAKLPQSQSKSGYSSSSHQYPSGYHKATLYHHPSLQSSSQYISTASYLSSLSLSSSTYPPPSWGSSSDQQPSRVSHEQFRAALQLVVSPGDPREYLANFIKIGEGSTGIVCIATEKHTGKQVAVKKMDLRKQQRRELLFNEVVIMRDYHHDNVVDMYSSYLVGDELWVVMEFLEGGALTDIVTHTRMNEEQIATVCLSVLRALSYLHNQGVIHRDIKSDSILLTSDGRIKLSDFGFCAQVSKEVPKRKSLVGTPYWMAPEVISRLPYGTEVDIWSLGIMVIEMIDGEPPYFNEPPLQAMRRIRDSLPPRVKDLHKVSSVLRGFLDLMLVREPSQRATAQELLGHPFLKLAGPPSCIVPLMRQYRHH
T10 sequence (Q9UEE5 whole entry): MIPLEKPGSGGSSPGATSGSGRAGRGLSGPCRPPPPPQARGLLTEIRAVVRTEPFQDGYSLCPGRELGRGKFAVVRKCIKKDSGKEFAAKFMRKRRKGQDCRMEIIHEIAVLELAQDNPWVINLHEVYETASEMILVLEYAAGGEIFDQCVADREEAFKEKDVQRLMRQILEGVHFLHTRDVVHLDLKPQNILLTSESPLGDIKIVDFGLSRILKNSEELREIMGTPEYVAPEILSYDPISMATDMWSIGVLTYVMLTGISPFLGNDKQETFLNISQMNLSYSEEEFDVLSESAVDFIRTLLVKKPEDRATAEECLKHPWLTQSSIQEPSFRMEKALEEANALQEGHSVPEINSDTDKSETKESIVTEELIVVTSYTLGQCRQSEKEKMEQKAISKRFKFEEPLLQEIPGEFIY
T1 sequence (Q9C098 whole entry): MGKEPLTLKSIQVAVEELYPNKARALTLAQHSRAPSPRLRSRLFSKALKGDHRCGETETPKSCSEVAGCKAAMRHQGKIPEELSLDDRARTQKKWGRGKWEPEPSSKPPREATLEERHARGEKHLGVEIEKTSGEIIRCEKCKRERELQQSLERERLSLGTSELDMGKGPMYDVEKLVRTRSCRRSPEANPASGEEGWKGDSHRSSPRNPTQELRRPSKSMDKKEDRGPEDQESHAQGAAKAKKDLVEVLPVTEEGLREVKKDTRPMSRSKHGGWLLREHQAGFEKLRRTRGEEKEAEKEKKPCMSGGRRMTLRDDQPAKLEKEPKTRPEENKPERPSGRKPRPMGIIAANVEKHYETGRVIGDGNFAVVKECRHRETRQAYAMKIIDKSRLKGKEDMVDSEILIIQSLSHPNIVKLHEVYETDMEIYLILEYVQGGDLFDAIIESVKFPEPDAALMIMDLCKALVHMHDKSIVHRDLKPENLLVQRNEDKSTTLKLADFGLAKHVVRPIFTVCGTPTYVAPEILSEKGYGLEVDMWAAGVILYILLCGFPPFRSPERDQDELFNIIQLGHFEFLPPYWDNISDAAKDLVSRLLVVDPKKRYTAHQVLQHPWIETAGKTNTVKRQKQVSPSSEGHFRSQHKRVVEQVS
T38 sequence (Q14164 whole entry): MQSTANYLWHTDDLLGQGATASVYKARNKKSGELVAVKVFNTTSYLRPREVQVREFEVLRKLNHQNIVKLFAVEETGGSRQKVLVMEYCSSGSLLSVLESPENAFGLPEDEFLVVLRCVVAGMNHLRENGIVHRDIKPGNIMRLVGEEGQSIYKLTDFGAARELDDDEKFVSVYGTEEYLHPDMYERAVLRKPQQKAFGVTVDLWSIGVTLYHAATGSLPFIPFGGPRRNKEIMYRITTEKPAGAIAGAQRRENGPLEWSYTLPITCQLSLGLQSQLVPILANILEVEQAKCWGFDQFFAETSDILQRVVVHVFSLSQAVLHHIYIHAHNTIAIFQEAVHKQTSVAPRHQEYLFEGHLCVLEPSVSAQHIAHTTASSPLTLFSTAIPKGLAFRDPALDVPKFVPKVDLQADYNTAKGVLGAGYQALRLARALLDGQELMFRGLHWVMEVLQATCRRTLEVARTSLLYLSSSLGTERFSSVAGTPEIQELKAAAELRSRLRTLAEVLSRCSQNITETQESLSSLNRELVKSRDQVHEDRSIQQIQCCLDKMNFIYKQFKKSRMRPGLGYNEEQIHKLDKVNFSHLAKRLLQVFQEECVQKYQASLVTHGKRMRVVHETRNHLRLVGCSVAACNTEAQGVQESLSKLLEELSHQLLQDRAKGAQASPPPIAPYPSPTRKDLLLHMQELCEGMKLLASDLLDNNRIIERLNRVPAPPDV
T8 sequence (Q13882 whole entry): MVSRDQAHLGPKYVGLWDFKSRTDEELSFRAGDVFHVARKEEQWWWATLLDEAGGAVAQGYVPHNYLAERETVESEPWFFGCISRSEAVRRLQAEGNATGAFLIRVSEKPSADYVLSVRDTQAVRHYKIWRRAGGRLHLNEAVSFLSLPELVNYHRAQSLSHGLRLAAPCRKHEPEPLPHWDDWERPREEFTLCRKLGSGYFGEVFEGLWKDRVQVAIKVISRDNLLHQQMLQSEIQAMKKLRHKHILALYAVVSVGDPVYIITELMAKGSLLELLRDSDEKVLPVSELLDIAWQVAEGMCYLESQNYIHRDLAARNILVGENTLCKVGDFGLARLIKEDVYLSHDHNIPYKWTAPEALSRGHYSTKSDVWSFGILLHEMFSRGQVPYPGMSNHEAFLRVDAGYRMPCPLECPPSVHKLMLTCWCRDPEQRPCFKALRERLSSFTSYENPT

In the case of `CN(C)Cc1cccc(Nc2ncc(Cl)c(-c3csc(C(=O)NN4CCOCC4)c3)n2)c1` [SKLB-D18, 4-(5-chloro-2-((3-((dimethylamino)methyl)phenyl)amino)pyrimidin-4-yl)-N-morpholinothiophene-2-carboxamide], the inhibition at 1 µM (DCAMKL3(h)) is reported as 66%, the inhibition at 1 µM (Txk(h)) is reported as 26% and the inhibition at 1 µM (PRP4(h)) is reported as 19%. For the same compound, the inhibition at 1 µM (NEK6(h)) was 0%, the inhibition at 1 µM (MLCK(h)) was 16% and the inhibition at 1 µM (GRK2(h)) was 3%. The inhibition at 1 µM (CK1ε(h)) was 18%, the inhibition at 1 µM (BRK(h)) was 32% and the inhibition at 1 µM (MLK4(h)) was 24%. For the same compound, the inhibition at 1 µM (DRAK1(h)) was 44%, the inhibition at 1 µM (EphA4(h)) was 6% and the inhibition at 1 µM (MELK(h)) was 62%. It also gave an inhibition at 1 µM (CLK1(h)) of 17%, an inhibition at 1 µM (LATS1(h)) of 21% and an inhibition at 1 µM (DYRK2(h)) of 41%. It also gave an inhibition at 1 µM (SAPK2b(h)) of 4%, an inhibition at 1 µM (MSSK1(h)) of -19% and an inhibition at 1 µM (A-Raf(h)) of 63%. For the same compound, the inhibition at 1 µM (HRI(h)) was 38%, the inhibition at 1 µM (TrkC(h)) was 43% and the inhibition at 1 µM (CaMKIIγ(h)) was 50%. The inhibition at 1 µM (DCAMKL1(h)) was 17%, the inhibition at 1 µM (SIK(h)) was 26% and the inhibition at 1 µM [1] was 0%. The inhibition at 1 µM (PAK5(h)) was 26%, the inhibition at 1 µM (IRE1(h)) was 2% and the inhibition at 1 µM (MARK4(h)) was 64%. The inhibition at 1 µM (IRR(h)) was 57%, the inhibition at 1 µM (EphB2(h)) was -1% and the inhibition at 1 µM (WNK3(h)) was 9%. It also gave an inhibition at 1 µM (MOK(h)) of 31%, an inhibition at 1 µM (Ret(h)) of 81% and an inhibition at 1 µM (CDK3/cyclinE(h)) of 16%. For the same compound, the inhibition at 1 µM (cSRC(h)) was 55%, the inhibition at 1 µM (ULK2(h)) was 67% and the inhibition at 1 µM (DMPK(h)) was 8%. The inhibition at 1 µM (ALK2(h)) was 16%, the inhibition at 1 µM (IKKε(h)) was 64% and the inhibition at 1 µM (CaMKK2(h)) was 21%. For the same compound, the inhibition at 1 µM (PKCε(h)) was 14% and the inhibition at 1 µM (JAK3(h)) was 67%.
